Earlier results in paper PMC6311893, “Computational prediction of plasma protein binding of cyclic peptides from small molecule experimental data using sparse modeling techniques” (BMC Bioinformatics, 2018).
Like-named read-outs stand apart in the source and are kept apart here.

Test system: plasma protein
Settings: cited from earlier work
[1] = fraction bound to plasma protein, small molecule dataset, sheet 1-SM, Set Dtr, ref Ingle et al.
[2] = fraction bound to plasma protein, small molecule dataset, sheet 1-SM (Set Dte = test, Dtr = training), ref Ingle et al.
[3] = fraction bound to plasma protein, small molecule dataset, sheet 1-SM, ref Ingle et al.

In the case of `Cc1onc(-c2ccccc2)c1C(=O)N[C@@H]1C(=O)N2[C@@H]1SC(C)(C)[C@@H]2C(=O)O` [Oxacillin], the “PPB (fb)” value [1] is given as 0.92.
For `Cc1[nH]c(=O)c(C#N)cc1-c1ccncc1` [Milrinone], the “PPB (fb)” value [1] is listed as 0.85.
In the case of `Cc1ncc([N+](=O)[O-])n1CCO` [Metronidazole], the “PPB (fb)” value [2] is given as 0.07.
In the case of `CC(=O)N[C@H]1[C@H]([C@H](O)[C@H](O)CO)OC(C(=O)O)=C[C@@H]1N=C(N)N` [Zanamivir], the “PPB (fb)” value [3] is given as 0.09.
For `CCN(CC)C(=O)/C(C#N)=C/c1cc(O)c(O)c([N+](=O)[O-])c1` [Entacapone], the “PPB (fb)” value [1] is listed as 0.98.
For `CCC(=O)O[C@]1(C(=O)SCF)[C@H](C)C[C@H]2[C@@H]3C[C@H](F)C4=CC(=O)C=C[C@]4(C)[C@@]3(F)[C@@H](O)C[C@@]21C` [Fluticasone propionate], the “PPB (fb)” value [1] is given as 0.89.
For `CC(=O)OC1C(O)CC(OC2C(O)CC(OC3C(O)CC(OC4CCC5(C)C(CCC6C5CC(O)C5(C)C(C7=CC(=O)OC7)CCC65O)C4)OC3C)OC2C)OC1C` (stereo not drawn) [beta-acetyldigoxin], the “PPB (fb)” value (plasma) is listed as 0.15.
For `C=CCOc1ccccc1OCC(O)CNC(C)C` (stereo not drawn) [oxprenolol], the “PPB (fb)” value [2] is given as 0.77.
For `Clc1ccccc1C(c1ccccc1)(c1ccccc1)n1ccnc1` [clotrimazole], the “PPB (fb)” value [2] is listed as 0.5.
In the case of `CCN(CC)C(=O)N1CCN(C)CC1` [diethylcarbamazine], the “PPB (fb)” value [2] is given as 0.
For `Nc1nc2c(c(=O)[nH]1)N(C=O)C(CNc1ccc(C(=O)N[C@@H](CCC(=O)O)C(=O)O)cc1)CN2` (stereo partly drawn) [leucovorin], the “PPB (fb)” value [3] is given as 0.91.
In the case of `Cc1ccc(S(=O)(=O)NC(=O)NN2CC3CCCC3C2)cc1` (stereo not drawn) [gliclazide], the “PPB (fb)” value [3] is listed as 0.91.
In the case of `CCOC(=O)[C@H](CCc1ccccc1)N[C@H]1CCCN2CCC[C@@H](C(=O)O)N2C1=O` [cilazapril], the “PPB (fb)” value [2] is given as 0.25.
For `Cc1cnc(C(=O)O)c[n+]1[O-]` [acipimox], the “PPB (fb)” value [2] is given as 0.02.
In the case of `CNCCC(Oc1ccc(C(F)(F)F)cc1)c1ccccc1` (stereo not drawn) [fluoxetine], the “PPB (fb)” value [3] is listed as 0.95.
For `CCCN1CCN(c2cc3c(cc2F)c(=O)c(C(=O)O)cn3-c2ccc(OC)cc2)CC1` [5cc (p-OCH3__ N- C3H7], the “PPB (fb)” value [2] is listed as 0.54.
In the case of `CCN(CC)Cc1cc(Nc2ccnc3cc(Cl)ccc23)ccc1O` [amodiaquine], the “PPB (fb)” value [2] is given as 0.9.
In the case of `COc1nc(N)nc2c1ncn2[C@@H]1O[C@H](CO)[C@@H](O)[C@@H]1O` [Nelarabine], the “PPB (fb)” value [1] is given as 0.2.
For `CC[C@@H]1C(=O)OC[C@@H]1Cc1cncn1C` [Pilocarpine], the “PPB (fb)” value [3] is given as 0.01.
For `CC1(C)SC2C(NC(=O)C(N)c3cccc(N)c3)C(=O)N2C1C(=O)O` (stereo not drawn) [penicillin31], the “PPB (fb)” value [3] is given as 0.12.
For `Cc1ncc2n1-c1ccc(Cl)cc1C(c1ccccc1F)=NC2` [Midazolam], the “PPB (fb)” value (plasma) is given as 0.97.
For `C[C@@H]1C[C@H]2[C@@H]3C[C@H](F)C4=CC(=O)C=C[C@]4(C)[C@H]3[C@@H](O)C[C@]2(C)[C@H]1C(=O)CO` [fluocortolone], the “PPB (fb)” value [3] is listed as 0.9.
For `CN(C)CCOC1=Cc2ccccc2Sc2ccc(Cl)cc21` [zotepine], the “PPB (fb)” value [2] is listed as 0.97.
In the case of `CCN[C@@H]1C[C@H](N)[C@@H](O[C@H]2OC(CN)=CC[C@H]2N)[C@H](O)[C@H]1O[C@H]1OC[C@](C)(O)[C@H](NC)[C@H]1O` [Netilmicin], the “PPB (fb)” value [2] is listed as 0.05.
For `CNCC[C@H](Oc1cccc2ccccc12)c1cccs1` [Duloxetine], the “PPB (fb)” value [3] is given as 0.9.
For `CC(C)(C)NCC(O)c1cc(Cl)c(N)c(Cl)c1` (stereo not drawn) [clenbuterol], the “PPB (fb)” value (plasma) is given as 0.5.
For `CCOC(=O)Nc1ccc(NCc2ccc(F)cc2)nc1N` [Flupirtine], the “PPB (fb)” value [1] is listed as 0.82.
In the case of `CC1(C)S[C@@H]2[C@H](NC(=O)C(c3ccccc3)S(=O)(=O)O)C(=O)N2[C@H]1C(=O)O` (stereo partly drawn) [Sulbenicillin], the “PPB (fb)” value [2] is listed as 0.5.
For `C#CC(O)(/C=C/Cl)CC` (stereo not drawn) [ethchlorvynol], the “PPB (fb)” value (plasma) is listed as 0.6.
In the case of `CCCCOCC(=O)NC1C(=O)N2C1SC(C)(C)C2C(=O)O` (stereo not drawn) [penicillin7], the “PPB (fb)” value [3] is listed as 0.59.
In the case of `NS(=O)(=O)Cc1noc2ccccc12` [zonisamide], the “PPB (fb)” value [2] is given as 0.4.
For `O=C1NCCN1CCN1CCC(c2cn(-c3ccc(F)cc3)c3ccc(Cl)cc23)CC1` [sertindole], the “PPB (fb)” value [3] is given as 0.99.
In the case of `NS(=O)(=O)c1cc(C2(O)NC(=O)c3ccccc32)ccc1Cl` (stereo not drawn) [Chlorthalidone], the “PPB (fb)” value [1] is listed as 0.75.
For `O=C(O)Cc1ccccc1Nc1c(Cl)cccc1Cl` [diclofenac acid], the “PPB (fb)” value [2] is listed as 0.99.
For `Nc1nc(F)nc2c1ncn2[C@@H]1O[C@H](CO)[C@@H](O)[C@@H]1O` [Fludarabine], the “PPB (fb)” value [1] is given as 0.12.
For `Nc1ccn([C@H]2CC[C@@H](CO)O2)c(=O)n1` [zalcitabine], the “PPB (fb)” value [1] is listed as 0.03.
For `CCC1CN2CCC1CC2[C@@H](O)c1ccnc2ccc(OC)cc12` (stereo partly drawn) [Dihydroquinidine], the “PPB (fb)” value [1] is listed as 0.78.
In the case of `CC(=O)OC1CC(OC2C(O)CC(OC3C(O)CC(OC4CCC5(C)C(CCC6C5CCC5(C)C(C7=CC(=O)OC7)CCC65O)C4)OC3C)OC2C)OC(C)C1O` (stereo not drawn) [acetyldigitoxin], the “PPB (fb)” value (plasma) is given as 0.8.
For `NS(=O)(=O)c1cc2c(cc1Cl)N=CNS2(=O)=O` [chlorothiazide], the “PPB (fb)” value [2] is given as 0.7.
For `CN1CCN(CC(=O)N2c3ccccc3C(=O)Nc3cccnc32)CC1` [pirenzepine], the “PPB (fb)” value [3] is given as 0.1.
For `NCCc1ccc(O)c(O)c1` [dopamine], the “PPB (fb)” value [2] is listed as 0.1.
In the case of `CC(C)(Oc1ccc(C2CC2(Cl)Cl)cc1)C(=O)O` (stereo not drawn) [ciprofibrate], the “PPB (fb)” value [2] is given as 0.95.
For `CN(C)CCOc1ccc(/C(=C(/CCCl)c2ccccc2)c2ccccc2)cc1` [toremifene], the “PPB (fb)” value [1] is given as 0.99.
For `C=C1C[C@@H]2[C@H](CC[C@]3(C)C(=O)CC[C@@H]23)[C@@]2(C)C=CC(=O)C=C12` [exemestane], the “PPB (fb)” value [3] is given as 0.9.
For `CCOc1cc(CC(=O)N[C@@H](CC(C)C)c2ccccc2N2CCCCC2)ccc1C(=O)O` [Repaglinide], the “PPB (fb)” value [3] is given as 0.98.
For `CCC1(C)OC(=O)N(C)C1=O` (stereo not drawn) [paramethadione], the “PPB (fb)” value [3] is listed as 0.
In the case of `C=CC(N)CCC(=O)O` (stereo not drawn) [vigabatrin], the “PPB (fb)” value [1] is listed as 0.
In the case of `COC(CC(=O)NC1C(=O)N2C1SC(C)(C)C2C(=O)O)c1cccs1` (stereo not drawn) [penicillin73], the “PPB (fb)” value [3] is given as 0.59.
In the case of `CCC(=O)O[C@](Cc1ccccc1)(c1ccccc1)[C@H](C)CN(C)C` [Propoxyphene], the “PPB (fb)” value (plasma) is listed as 0.75.
In the case of `CCOC(=O)[C@@H]1C2CCC(C[C@@H]1OC(=O)c1ccccc1)N2C` (stereo partly drawn) [Cocaethylene], the “PPB (fb)” value (plasma) is given as 0.36.
For `COc1cc(CCN)cc(OC)c1OC` [mescaline], the “PPB (fb)” value (plasma) is listed as 0.15.
For `CC(CC(c1ccccc1)c1ccccc1)NC(C)(C)C` (stereo not drawn) [Terodiline], the “PPB (fb)” value [3] is given as 0.88.
In the case of `CCn1cc(C(=O)O)c(=O)c2cnc(N3CCNCC3)nc21` [pipemidic acid], the “PPB (fb)” value [3] is listed as 0.3.
In the case of `Nc1nc2c(ncn2CCC(CO)CO)c(=O)[nH]1` [Penciclovir], the “PPB (fb)” value [1] is listed as 0.13.
For `COC(C(=O)NC1C(=O)N2C1SC(C)(C)C2C(=O)O)c1ccccc1` (stereo not drawn) [penicillin38], the “PPB (fb)” value [3] is listed as 0.62.
In the case of `Cc1onc(-c2c(Cl)cccc2Cl)c1C(=O)N[C@@H]1C(=O)N2[C@@H]1SC(C)(C)[C@@H]2C(=O)O` [Dicloxacillin], the “PPB (fb)” value [1] is listed as 0.96.
For `CC(CCc1ccccc1)NCC(O)c1ccc(O)c(C(N)=O)c1` (stereo not drawn) [Labetalol], the “PPB (fb)” value [1] is listed as 0.5.
In the case of `Cc1ccc(-c2cc(C(F)(F)F)nn2-c2ccc(S(N)(=O)=O)cc2)cc1` [celecoxib], the “PPB (fb)” value [2] is given as 0.97.
In the case of `CC[C@@]1(O)C(=O)OCc2c1cc1n(c2=O)Cc2cc3c(CN(C)C)c(O)ccc3nc2-1` [Topotecan], the “PPB (fb)” value [3] is listed as 0.25.
For `CO[C@@]1(NC(=O)C2SC(=C(C(N)=O)C(=O)O)S2)C(=O)N2C(C(=O)O)=C(CSc3nnnn3C)CS[C@@H]21` (stereo partly drawn) [Cefotetan], the “PPB (fb)” value [1] is given as 0.84.
